Results as given in patent US5242942A, “Anticonvulsant fructopyranose cyclic sulfites and sulfates” (McNeilab, Inc., priority 1992, dated 1993).

Columns and labels:
tonic extensor seizure = assay: maximal electroshock test (MES); format: in vivo, mouse (albino male CRS-CD1); conditions: PO, mouse, 4 hr, read-out: % Block (MES Test, mouse)
Description: The compounds of formula (I) are particularly useful as anticonvulsant agents in mammals including humans. The anticonvulsant activity of the subject compounds was determined using a standard "maximal electroshock test" (MES). In this test, activity is indicated by a block of the […] extensor seizure caused by application of an electric shock to mice via corneal electrodes, as described by Swinyard et al. in J. Pharmacol. Expt. Ther. 1952, 106, 319, and recorded as % block. A more recent description of current anticonvulsant drug screening is given by Swinyard in Epilepsia 1978, 19, 409. The anticonvulsant activity of the compounds of this invention tested according to the Swinyard 1952 method is shown in the following Table I.
In the test, albino male CRS-CD1 mice weighing between 18-25 g were used in all experiments (obtained from Charles River). They were allowed food and water ad libitum and were used only once. The electroshock apparatus and the corneal electrodes were purchased from Wahlquist Instrument Company, Salt Lake City, Utah.
Maximal electroshock seizures were induced by the delivery of a 60 Hertz (Hz) current of 50 milliamps (mA) intensity to the mouse through corneal electrodes for 0.2 seconds as originally described by Swinyard et al. (1952). This stimulus intensity is approximately 4 to 6 times the current producing 100% tonic extensor convulsions. During the validation of the MES test, the duration of the various seizure components following maximal electroshock were measured as follows: hindleg tonic flexion was measured from the time of the application of the stimulus to the time of onset of hindleg tonic extension (i.e. when the hindlegs deviate by greater than an angle of 90° from the torso), hindleg tonic extensor was measured from the time of extensor thrust to the onset of generalized clonus, and terminal clonus was measured from the beginning to the end of bilateral rhythmic clonic jerking. Mortality was also recorded. The duration of each seizure component agreed well with the values previously reported by Tedeschi et al. in J. Pharmacol. Expt. Ther. 1955, 116, 107. The corneal electrodes were concave so that saline could be applied to the electrodes to reduce mortality. If this procedure is followed, mortality should always be less than 40% in control mice. Thus, at an electroshock stimulus of 60 Hz, 50 mA and 0.2 seconds duration, the order of convulsive components and the percentage of control animals displaying the behaviors should be as follows: tonic flexion (100%), tonic extension (100%) and clonus (100%) with less than 40% mortality.
For testing compounds, the abolition of the tonic extensor component was the endpoint. Animals were dosed orally (PO) with either vehicle or test drug and at a specified time were given a maximal electric shock through corneal electrodes blotted with saline (as described above). A minimum of 10 animals were used per group and the percentage of animals in the group without tonic hindlimb extension recorded. Determination of ED50 values (that dose of drug inhibiting 50% of the tonic extensor seizures) is shown below in Table I.

Total Acid Output = assay: pylorus-ligated rat test, gastric antisecretory activity; format: in vivo, rat (male Charles River Sprague-Dawley derived); conditions: IP, 200 mg/kg
Description: The gastric antisecretory activity of the compounds shown in Table II was determined by the pylorus-ligated rat test described by Shay et al. in Gastroenterol. 1954, 26, 906. In this method, male Charles River Sprague-Dawley derived rats weighing 150-300 grams were deprived of food but not water for 18-24 hours prior to use. Water was withheld during the experiment, however. The rats were weighed, lightly anesthetized with ether and the pylorus ligated according to the method of Shay et al., supra. The treatment or vehicle control was then administered intraperitoneally (IP) or orally (PO). When administered by the IP route, the administration was done 30 minutes before ligation. When administered by the PO route, the administration was done prior to ligation (about 1/2 to 3 hours before). Rats were housed two per cage and sacrificed with carbon dioxide 3 hours after ligation. Their stomachs were removed, rinsed, and contents emptied into a graduated centrifuge tube. The tubes were centrifuged, the volume of gastric juice was recorded, and any samples obviously contaminated by feces, food or blood were eliminated. A 1 mL aliquot of gastric juice was titrated with 0.1N NaOH to a pH of 7.0-7.4. The volume of gastric juice secreted, the acid concentration, and the product of the volume times the concentration, i.e. the total amount of acid secreted, were measured. The total acid output was calculated by multiplying the volume of gastric juices collected times the hydrogen ion concentration (amount of NaOH added to a sample to reach a pH of 7.0-7.4) and dividing that value by 10. The mean value of the total acid output for a control group of rats was then subtracted from the mean value of the total acid output for the group of rats tested at the same dose. That value was then divided by the mean value of total acid output for the control group and the resulting number was multiplied by 100 to provide a Percent Inhibition value, which values are reported in Table II. The […] was determined statistically as the dose at which a 50% inhibition would be realized.

rat diuresis study = format: in vivo, rat (male Wistar); conditions: 2.5 mg/kg PO, average of five animals
Excerpt: Evidence for the inhibition of carbonic anhydrase by compounds of the formula (I) can also be obtained by a diuresis study, such as described by A. Weiner in Goodman and Gilman's The Pharmacological Basis of Therapeutics, 8th ed.; Goodman Gilman, A.; Rall, T. W.; Nies, A. S.; Taylor, P., Eds.; Pergamon Press: New York, 1990; pp 716-718. An increase in urine akalinity accompanied with an increase in water intake and urine output provides an indirect indication of carbonic anhydrase inhibition activity. Male Wistar rats having a weight of 250-300 g were dosed orally (PO) and housed in cages that allowed for the quantitative measure of fluid intake and urine output. Water intake and urine output were measured at 24 hours versus control, whereas urine pH, obtained via pH meter, was measured at 4 and 24 hours versus control. The results of this study, which are the average of five animals, are reported below in Table III. […] Such data is also an indication of the usefulness of the compounds of formula (I) as diuretics in the treatment of hypertension, congestive heart failure and other types of edema. The determination of suitable dosages for such compounds for the treatment of hypertension and congestive heart failure and other types of edema is within the skill of the art.

Question: Which responders at 10 mg/kg (tonic extensor seizure; 10 mg/kg) does the source give for `CC1(C)O[C@H]2[C@@H]3OS(=O)(=O)O[C@@H]3CO[C@@]2(COS(=O)(=O)NC2CC2)O1` [Example 9, 2,3-O-(1-Methylethylidene)-4,5-O-sulfonyl-β-D-fructopyranose Cyclopropylsulfamate] here?
Answer: 90%

Question: And the “Percent Inhibition of Total Acid Output” value (Total Acid Output)?
Answer: 87%

Question: What about the “Urine pH” value (rat diuresis study; 4 hours, control 6.98) of the same compound?
Answer: 9.02

Question: And the “Urine pH” value (rat diuresis study; 24 hours, control 6.43)?
Answer: 7.26

Question: And the “Water Intake” value (rat diuresis study; 24 hours, control 15.0)?
Answer: 27.8 mL

Question: What about the “Urine Output” value (rat diuresis study; 24 hours, control 17.6) of the same compound?
Answer: 33.2 mL

Question: Which results are given for `CC1(C)O[C@H]2[C@@H]3OS(=O)(=O)O[C@@H]3CO[C@@]2(COS(=O)(=O)NC2CCCCCCC2)O1` [Example 11, 2,3-O-(1-Methylethylidene)-4,5-O-sulfonyl-β-D-fructopyranose Cyclooctylsulfamate]?
Answer: responders at 75 mg/kg (tonic extensor seizure; 75 mg/kg): 30%; Percent Inhibition of Total Acid Output (Total Acid Output): 50%
